Experimental data as given in publication PMC10356901, “Mitochondria-derived peptide SHLP2 regulates energy homeostasis through the activation of hypothalamic neurons” (Nature Communications, 2023).
Where “and” joins values, the source holds several entries; their conditions need not be identical. Equal values may be shown once. Where no end group is shown, it is not given here.

Tests used:
[1] = Angiotensin II-induced water consumption test (Supplementary Fig. 4a); type: in vivo, mouse; details: After (angiotensin II); individual animals
Description: For intracerebroventricular (ICV) cannulation, mice were anesthetized by intraperitoneal injection (IP) of Zoletil (titelamine/zolazepam 30 mg/kg) and Rompun (xylazine 10 mg/kg), then placed onto a stereotaxic apparatus. After setting the ventricular coordinates, a permanent 26-gauge stainless steel cannula (Plastic one, Inc.) was implanted in the third ventricle (1.8 mm caudal to bregma, and 5.0 mm ventral to the sagittal sinus according to the Paxinos and Franklin’s atlas) and secured to the skull surface using a dental acrylic (Vertex). Mice were individually housed and allowed to recover for at least 1 week. The angiotensin II-induced water consumption test was performed to confirm the position of the ICV cannulation. […] Mice with no angiotensin II-induced thirst behavior were excluded from the experiments.

[2] = tested on: CXCR7; assay: Nanoluc-complementation (NanoBiT) β-Arrestin2 recruitment to CXCR7; type: cell-based, human; details: HEK293T, n = 4 each group
Description: The recruitment assay was performed based on Nano-luciferase[49]. The vectors (50 ng; gift of Prof. Jong-Ik Hwang, Korea University) encoding human CXCR7, CXCR4, and β-Arrestin2 tagged with SmBiT and LgBiT under Ubiquitin C promoter[49] were transfected into HEK293T cells in a 96-well clear bottom culture plate using Lipofectamine 2000 according to the manufacturer’s protocol. Cells were washed three times with an assay buffer containing (in mM) 140 NaCl, 2.5 KCl, 10 Glucose, 5 HEPES, 2 CaCl2, and 2 MgSO4, pH 7.4 after 24 h. Cells were then incubated with 5 µM Coelenterazine-h (Promega, S201) in the assay buffer for 30 min in the dark, and luminescence was measured at 35 °C in the Victor Nivo Multimode Plate reader (PerkinElmer). The background luminescence was measured for at least 10 min before the addition of ligands, and signals were monitored for at least 60 min after the application of SHLP2 or recombinant mouse CXCL12 (R&D systems, 460-SD-010/CF). The specificity of SHLP2 β-Arrestin2 recruitment through CXCR7 was also confirmed through the assay with CXCR4. Luminescent signals were collected through a 700 nm-IR filter and data were shown as light counts per each cycle of measurement.

[3] = cited from earlier work
Description: One of the first MDPs discovered is Humanin, a 24-amino-acid peptide encoded by the mitochondrial 16S ribosomal RNA (rRNA) gene. It was originally identified in 2001 during a screening for neuroprotective factors against Alzheimer’s disease[6],[7]. […] Another MDP called Mito chondrial Open Reading Frame of the 12S rRNA-c (MOTS-c) is encoded by the mitochondrial 12S rRNA gene[9]. MOTS-c is a mitochondria-originated metabolic hormone which ... || In addition to humanin and MOTS-c, a recent study has identified an additional six small humanin-like peptides (SHLP1 to 6) encoded by the 16S rRNA gene of the mtDNA genome. […] However, the mechanism by which SHLP2 affec ...

[4] = tested on: adipocytes; details: in vitro; cited from earlier work
Description: In addition to humanin and MOTS-c, a recent study has identified an additional six small humanin-like peptides (SHLP1 to 6) encoded by the 16S rRNA gene of the mtDNA genome. […] However, the mechanism by which SHLP2 affec ...

[5] = Dot blot for SHLP2 in CSF after IP injection; type: in vivo, mouse
Description: The immuno-dot blot assay was performed by using the human and mice serum or mouse CSF. 0.2 μm nitrocellulose membranes were activated with ultrapure water (Invitrogen, 10977015), and 2 μL of samples were spotted on a membrane and dried for 30 mins at RT. The membrane was blocked in 5% BSA prepared in 1X Tris Buffered Saline-0.1% Tween 20 (TBST) for 1 h before being overnight incubated with anti-SHLP2 at 4 °C. Membranes were washed 3 times with 1X TBST, then incubated with anti-rabbit IgG (Invitrogen, 31460, 1:3000). The membranes were washed and visualized using the ImageQuant™ LAS 4000 (GE Healthcare Life Science). Blot densitometry was measured using ImageJ software (NIH Image). To quantitate the immuno-dot blot assay results, we prepared controls (total protein level stained by amido black), and subsequently established a calibration figure for each run of the assay.

[6] = biological target: T1, CXCR7 (Homo sapiens, UniProt P25106); assay: PathHunter β-Arrestin recruitment to CXCR7, dose response; type: cell-based; details: 10-point curve, Hill / four-parameter logistic
T1 construct: host or cells: CHO-K1
Description: The GPCR profiling was performed using PathHunter GPCRmax Arrestin recruitment assay with 168 known GPCRs provided by DiscoverX (Eurofins). This assay utilized Chinese Hamster Ovary CHO-K1 cells expressing GPCR tagged with ProLink (PK) and β-Arrestin2 tagged with a deletion mutant of β-galactosidase as an enzyme acceptor. Upon the binding of the ligand to the GPCR, the recruitment of tagged β-Arrestin2 to the GPCR causes the complementation of a functional β-galactosidase, hydrolyzing a chemiluminescence substrate. The assay was performed with known ligands in agonist and antagonist modes, with data presented as: %Activityagonist=100%×MeanRLUSHLP2−MeanRLU(vehiclecontrol)/MeanMAXRLUcontrolligand−MeanRLU(vehiclecontrol) and %Activityantagonist=100%×1−MeanRLUSHLP2−MeanRLU(vehiclecontrol)/MeanMAXRLUcontrolligand−MeanRLU(vehiclecontrol)
The dose response (EC50) was built using a 10-point curve and fit to a Hill Equation.

[7] = biological target: CXCR7 tagged with ProLink (PathHunter CHO-K1 cell line) (UniProt P25106)
[8] = tested on: POMC neurons expressing hM4Di; assay: Patch clamp of hM4Di-expressing POMC neurons on CNO application; type: cell-based, mouse; details: for Firing rate / Resting membrane potential (RMP): hM4Di-expressing POMC neurons, CNO
Description: Slices were moved to a submerged-type recording chamber with continuous perfusion of carbogenated recording aCSF heated to 31 °C at a flow rate of approximately 2 mL/min. Tested compounds were added through bath perfusion. To block synaptic inputs, the aCSF contained 100 nM tetrodotoxin (TTX citrate; Tocris, 1069), 100 μM picrotoxin (Sigma-Aldrich, P8390), 100 μM D(−)-2-Amino-5-phosphonopentanoic acid (D-AP-V; Tocris, 0106) and 20 μM CNQX (CNQX-disodium; Tocris, 1045). To block ERK1/2 activation or PI3K signaling pathway, 10 µM of PD98059 (Tocris, 1213) or 1 µM of wortmannin (Tocris, 1232) was added to the bath solution for at least 30 min before any measurement. To test the effect of CNO on POMC neurons expressing the DREDD hM4Di receptor, 5 μM of CNO were applied for 1 to 2 min.
POMC or AgRP-expressing neurons in the ARC were identified with a brief exposure to epifluorescence on an upright microscope (Nikon FN1) using a 40X water-immersion objective and differential interference contrast optics. The pipette solution contains (in mM) 127 K-Methanesulfonate, 5 KCl, 10 HEPES, 0.3 EGTA, 4 Mg-ATP, 0.3 Na-GTP, and is of a pH adjusted to 7.3 with KOH and a 288 mOsm/kg osmolality. The patch pipettes have a resistance of 4-6 MΩ when filled with the pipette solution. […] The basal resting membrane potential and firing rate were recorded for around 3 min after breaking in, and bath perfusion of SHLP2 was applied for 3 to 5 min. Neurons were classified as responsive if there was a change in resting membrane potential of at least 2 mV during the period of drug application. The access resistance (Ra) was monitored throughout the experiment, and cells with a Ra of more than 35 MΩ were excluded from the analysis. Data were acquired at 10 kHz, filtered with a lowpass filter at 5 kHz and analyzed offline with Clampfit 10 (Molecular Devices). The calculated liquid junction potential was +9.55 mV and used to correct all data.

CXCR7 tagged with ProLink (PathHunter CHO-K1 cell line), sequence (P25106 whole entry): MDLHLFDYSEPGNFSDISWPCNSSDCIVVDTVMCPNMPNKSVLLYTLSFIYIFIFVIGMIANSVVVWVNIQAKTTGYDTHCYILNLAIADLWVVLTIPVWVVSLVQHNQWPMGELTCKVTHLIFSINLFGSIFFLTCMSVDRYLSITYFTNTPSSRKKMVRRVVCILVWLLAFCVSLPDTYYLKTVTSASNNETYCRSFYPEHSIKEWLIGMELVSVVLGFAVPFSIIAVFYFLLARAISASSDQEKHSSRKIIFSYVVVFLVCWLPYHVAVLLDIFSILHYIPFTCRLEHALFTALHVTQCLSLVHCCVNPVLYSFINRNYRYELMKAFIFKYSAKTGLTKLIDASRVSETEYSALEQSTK
T1 sequence (P25106 whole entry): as above
T1 sequence (P32121 whole entry partner): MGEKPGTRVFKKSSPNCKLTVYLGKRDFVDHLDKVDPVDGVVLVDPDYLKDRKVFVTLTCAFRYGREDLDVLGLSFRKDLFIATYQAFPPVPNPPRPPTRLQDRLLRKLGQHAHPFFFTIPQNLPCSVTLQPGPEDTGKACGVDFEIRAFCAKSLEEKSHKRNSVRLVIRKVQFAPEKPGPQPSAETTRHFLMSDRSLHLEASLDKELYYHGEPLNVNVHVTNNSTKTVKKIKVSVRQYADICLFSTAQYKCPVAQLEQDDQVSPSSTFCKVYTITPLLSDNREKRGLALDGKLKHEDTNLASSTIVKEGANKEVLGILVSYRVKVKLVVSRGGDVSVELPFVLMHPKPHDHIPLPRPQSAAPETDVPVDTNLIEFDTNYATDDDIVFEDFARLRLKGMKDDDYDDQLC

Compound: angiotensin II (DRVYIHPF; Angiotensin-2; UniProt P01019 25-32, looked up) [used in the water consumption test to confirm ICV cannula position]
- Fig. S4a water intake [1]: 0.37 g and 0.63 g and 0.3 g and 0.21 g

Compound: Small humanin-like peptide 1 [SHLP1]
- CXCR7 activation (β-Arrestin2 recruitment) by SHLP1 to 6 [2]: but not by SHLP1, 3, 4, 5, or 6

Compound: Mito chondrial Open Reading Frame of the 12S rRNA-c (MRWQEMGYIFYPRKLR; UniProt A0A0C5B5G6 1-16, looked up) [MOTS-c, mitochondrial-derived peptide encoded by the mitochondrial 12S rRNA gene]
- lifespan [3]: promote lifespan

Compound: humanin: 24-amino-acid peptide encoded by the mitochondrial 16S ribosomal RNA gene (MAPRGFSCLLLLTSEIDLPVKRRA; UniProt Q8IVG9 1-24, looked up)
- lifespan [3]: promote lifespan

Compound: Small humanin-like peptide 3 [SHLP3]
- CXCR7 activation (β-Arrestin2 recruitment) by SHLP1 to 6 [2]: but not by SHLP1, 3, 4, 5, or 6
- cellular differentiation and insulin sensitivity in adipocytes [4]: enhance cellular differentiation and insulin sensitivity in adipocytes in vitro

Compound: MGVKFFTLSTRFFPSVQRAVPLWTNS [SHLP2, Small humanin-like peptide 2]
- SHLP2 in CSF, relative dot blot densitometry ([5]; IP injection, individual animals (n = 3)): 3.163 and 4.493 and 3.525
- SHLP2 detection in CSF ([5]; systemic (IP) injection): highly detected in the CSF
- EC50 [6]: 970 nM

Compound: Small humanin-like peptide 2 (SHLP2), biotinylated
- PathHunter β-Arrestin recruitment to CXCR7 (screen of 168 GPCRs, agonist mode): relative agonistic activity of SHLP2 as percent of the known ligand SDF1α/CXCL12 (% of the known ligand SDF1α/CXCL12) [7]: 70
- PathHunter β-Arrestin recruitment to CXCR7, dose response to SHLP2 (10-point curve): EC50 [7]: 970 nM

Compound: Small humanin-like peptide 4 [SHLP4]
- CXCR7 activation (β-Arrestin2 recruitment) by SHLP1 to 6 [2]: but not by SHLP1, 3, 4, 5, or 6

Compound: C[N+]1([O-])CCN(C2=Nc3cc(Cl)ccc3Nc3ccccc32)CC1 [CNO, Clozapine-N-oxide]
- effect on POMC neurons expressing hM4Di ([8]; 5 μM CNO, 1 to 2 min, n = 6 from 2 animals): induced hyperpolarization of POMC neurons expressing hM4Di
- resting membrane potential and firing rate of POMC neurons expressing hM4Di ([8]; 5 μM CNO, n = 6 from 2 animals): decreases in the resting membrane potentials (h) and firing rates (i)
- Firing rate ([8]; replicate 1 of 6): 0.3384
- Resting membrane potential (RMP) ([8]; replicate 1 of 6): -60.0566
- Firing rate ([8]; replicate 2 of 6): 0
- Resting membrane potential (RMP) ([8]; replicate 2 of 6): -63.8078
- Firing rate ([8]; replicate 3 of 6): 0.1759
- Resting membrane potential (RMP) ([8]; replicate 3 of 6): -77.9333
- Firing rate ([8]; replicate 4 of 6): 0.2189
- Resting membrane potential (RMP) ([8]; replicate 4 of 6): -57.1355
- Firing rate ([8]; replicate 5 of 6): 0.1654
- Resting membrane potential (RMP) ([8]; replicate 5 of 6): -59.3185
- Firing rate ([8]; replicate 6 of 6): 0.2879
- Resting membrane potential (RMP) ([8]; replicate 6 of 6): -55.5068

Compound: Small humanin-like peptide 6 [SHLP6]
- CXCR7 activation (β-Arrestin2 recruitment) by SHLP1 to 6 [2]: but not by SHLP1, 3, 4, 5, or 6

Compound: Small humanin-like peptide 5 [SHLP5]
- CXCR7 activation (β-Arrestin2 recruitment) by SHLP1 to 6 [2]: but not by SHLP1, 3, 4, 5, or 6
